In publication PMC1190152, “Archazolid and apicularen: Novel specific V-ATPase inhibitors” (BMC Biochemistry, 2005):
Where two headings read alike, the source gives them in different places.

How the values were obtained:
3Y1 = experiment: Growth inhibition of 3Y1 cells (MTT assay); type: cell-based, rat; conditions: read-out: IC50 growth inhibition
Protocol: (§1) Cell lines were obtained from the German Collection of Microorganisms and Cell Cultures (DSMZ). Cell lines 3Y1 and M1 (embryonal fibroblasts from 129/Ola × C57BL/6 mice, [30]) were a generous gift from Dr. S. Miyamoto, Fukoka, Japan, and Dr. P. F. Mühlradt, Braunschweig, Germany. All cell lines were cultivated under conditions recommended by the supplier. Growth inhibition was measured in microtiterplates. Aliquots of 120 μl of the suspended cells (50,000/ml) were given to 60 μl of a serial dilution of the inhibitor. After 5 days, growth was determined using the MTT assay.

KB-V1 = experiment: Growth inhibition of multidrug-resistant KB-V1 cells (MTT assay), with or without verapamil; type: cell-based; conditions: 120 h; KB-V1, mdr human cervix carcinoma; without verapamil; MTT after 5 days
Protocol: The novel antibiotics archazolids and apicularens (Fig. 1) were checked for their impact on the cell growth of a variety of mammalian cell lines from different tissues (Tab. 1). […] Apicularen B was the only exception, with an average IC50 value two orders of magnitude higher. Growth inhibition of the multidrug-resistant cell line KB-V1 was also measured in the presence of verapamil. […] The data in Tab 1. show, that unlike the archazolids, the apicularens are poor substrates of Pgp. To visualize the impact of the antibiotics, PtK2 (potoroo kidney) cells were incubated with the inhibitors and stained for intact acidic lysosomes (Fig. 2). […] The same observation was made with KB-3-1 cells (data not shown). […] Unlike the cell lines listed in Tab. 1, the growth of PtK2 cells was not completely stopped. The same holds true for A-498 cells (human kidney carcinoma). Both cell lines grow epithelial-like. There was obviously a differential reaction of cell lines to V-ATPase inhibitors. For A-431 cells (human epidermoid carcinoma) a dependence on the expression of the EGF receptor was shown.
as §1

M1 = experiment: Growth inhibition of M1 cells (MTT assay); type: cell-based, mouse; conditions: 120 h, read-out: IC50 growth inhibition
Protocol: as §1

[1] = target: T1, V-ATPase holoenzyme from the midgut of the tobacco hornworm (Manduca sexta, UniProt P31403); experiment: Inhibition of purified V-ATPase holoenzyme activity; type: biochemical; conditions: for IC50 per mg of protein, purified V-ATPase: equivalent of the half-maximal concentration
T1 construct: purified V-ATPase holoenzyme from the midgut of the tobacco hornworm; from tissue; host or cells: midgut of fifth instar Manduca sexta larvae
Protocol: (§2) The V-ATPase holoenzyme was purified as published elsewhere. Preparation of highly purified membranes containing Na^+/K^+-ATPase from pig kidney followed the protocol of Jørgensen with the three main steps of differential centrifugation, incubation with SDS in the presence of ATP and sucrose density gradient centrifugation in a fixed angle rotor, and led to a specific enzyme activity which was in the same range as that reported by the authors. The resulting sample was stored frozen at -20°C. To prepare crude membrane extracts, the hearts of three mice were washed three times with an ice-cold buffer of pH 8.1 consisting of 0.25 M sucrose, 5 mM Tris-HCl, 5 mM EDTA, and 10 mM Pefabloc SC (Biomol), homogenized in 5 ml of this buffer and centrifuged at 4°C for 25 min at 233,000 × gmax in a fixed angle rotor. The resulting pellet was resuspended in 5 ml of a buffer of pH 7.5, consisting of 5 mM Tris-MOPS (3-morpholinopropanesulfonic acid), 10 mM NaCl, 10 mM Pefabloc SC, 9.6 mM 2-mercaptoethanol, 0.53 mM EGTA and 0.1 % Triton X-100. After an aliquot for protein determination had been taken, 10% bovine serum albumin (final concentration) was added to the suspension which was then stored on ice until the activity assays were run. Beef heart mitochondria were isolated by differential centrifugation, following the protocol of Smith by using a blender to homogenize the heart mince. The initial homogenization buffer consisted of 250 mM saccharose, 10 mM KH2PO4, 10 mM Tris, 2 mM EGTA, 2 mM MgCl2, pH 7.4, and further isolation procedures were carried out in the same medium without EGTA [24]. Submitochondrial particles were obtained by ultrasonic treatment of the mitochondria.
(§3) Standard V-ATPase assays with a final volume of 160 μl and a pH of 8.1 consisted of 3–4 μg of protein, 50 mM Tris-MOPS, 3 mM 2-mercaptoethanol, 1 mM MgCl2, 20 mM KCl, 0.003% C12E10, 20 mM NaCl, and 3 mM Tris-HCl. After 5 min of pre-incubation at 30°C with or without inhibitors, 1 mM Tris-ATP was added and after incubation for 2 min the reaction was stopped by placing the tube in liquid nitrogen. Assays using Na^+/K^+-ATPase were performed in 160 μl at pH 7.5 and contained 0.5 μg of protein, 50 mM Tris-MOPS, 5 mM imidazole, 0.2 mM EDTA, 4 mM MgCl2, 20 mM KCl and 100 mM NaCl. After 5 min of pre-incubation at 37°C with or without inhibitors, 3 mM Tris-ATP was added and after 1 min of incubation the reaction was stopped by placing the tube in liquid nitrogen. […] After 5 min of pre-incubation at 30°C with or without inhibitors, 1 mM Tris-ATP was added and after an incubation time of 10 min the reaction was stopped by placing the tubes in liquid nitrogen. ATPase assays with submitochondrial particles from beef heart were performed in a final volume of 1 ml and a pH of 8.0. The samples contained 9–12 μg protein, 50 mM Tris, 50 mM KCl and 2.5 mM MgCl2. After 5 min of preincubation with or without inhibitors, 5 mM ATP was added, and after an additional incubation time of 15 min the reaction was stopped by the addition of 0.4 ml of 20 % TCA.
(§4) Inorganic phosphate produced in the assays of V-ATPase, Na^+/K^+-ATPase and mouse heart F-ATPase was measured according the protocol of Wieczorek et al., while the determination of inorganic phosphate produced in the assays of beef heart F-ATPase followed the method of Fiske and Subarrow using ascorbic acid as reducing agent.
Fifth instar larvae of M. sexta (Lepidoptera, Sphingidae), weighing 6–8 g, were reared under long day conditions (16 h of light) at 27°C using a synthetic diet modified according to Bell et al.

Na+/K+-ATPase = target: T2, Na+/K+-ATPase (Sus scrofa, UniProt P05024); experiment: Inhibition of Na+/K+-ATPase from pig kidney; type: biochemical; conditions: inhibitor 1 μM
T2 construct: highly purified, Na^+/K^+-ATPase containing plasma membranes from pig kidney; from tissue; host or cells: pig kidney, purified plasma membranes
Protocol: as §2, §3, §4

PtK2 cells = experiment: Inhibition of lysosomal acidification (LysoTracker staining); type: cell-based, potoroo; conditions: 4 hours with inhibitor
Protocol: PtK2 (ATCC CCL-56) or KB-3-1 cells were grown on glass coverslips (13 mm diameter) in four-well-plates. Exponentially growing cells were incubated with the inhibitors for 4 hours and stained for lysosomes with 50 nM LysoTracker Red DND-99 and for mitochondria with 75 nM MitoTracker Green FM (both from Molecular Probes) at 37°C for 30 min. The nuclei were stained using Hoechst 33258 (5 μg/ml). The coverslips were mounted upside down in PBS, fixed with nail polish, and observed under the fluorescent microscope.

Vo subunit c [2] = target: T3, Vo subunit c (Manduca sexta, UniProt P31403); experiment: Protection of V-ATPase subunit c from photoaffinity labelling by I-concanolide A; type: binding; conditions: pre-incubation 100 μM or 10 μM, 60 min on ice; I-concanolide A 10 μM; UV
T3 construct: from tissue; host or cells: midgut of Manduca sexta larvae (purified V-ATPase)
Protocol: Twenty micrograms of the samples were pre-incubated with the inhibitors for 1 h on ice. The labelled I-concanolide A was then added to give a final concentration of 10 μM. Controls were run without effectors. Mixtures with volumes of 40 μl were incubated for an additional 1 h on ice and then treated for 3 min with UV light (366 nm) on ice. After UV irradiation, 10 μl of 5-fold sample buffer was added, the mixture was heated for 45 s at 95°C, cooled on ice, and subjected to Tricine-SDS-PAGE (16.5% T, 3% C separating gel and 10%T, 3% C spacer gel), followed by Coomassie staining. The gels were sealed in plastic wrap before they were exposed to a phosphoscreen for up to 72 h and analyzed with the aid of a phosphoimager (Molecular Dynamics).

A-594 [3] = test system: A-594; design: method as in PMID 10048565; conditions: A-594, human lung carcinoma; ref [15]; read-out: IC50 growth inhibition; cited from earlier work
bacterial growth = conditions: ref [11],[15],[17]; cited from earlier work
A-594 [4] = experiment: Growth inhibition of A-594 cells (MTT assay); type: cell-based, human; conditions: 120 h, read-out: IC50 growth inhibition
Protocol: as §1

L-929 = test system: L-929; design: method as in PMID 12931860; conditions: L-929, murine connective tissue; ref [17]; read-out: IC50 growth inhibition; cited from earlier work
[5] = target: T1, V-ATPase holoenzyme from the midgut of the tobacco hornworm; design: method as in PMID 12186879; conditions: ref [10], cited from earlier work; for IC50: read-out: half-maximal inhibition concentration of purified V-ATPase
Vo subunit c [6] = target: T3, Vo subunit c; design: method as in PMID 12186879; conditions: previous study; ref [10]; cited from earlier work
F-ATPase [7] = target: T4, F-ATPase (Mus musculus, UniProt P56480); experiment: Inhibition of F-ATPase activity in crude membranes from mouse heart; type: biochemical; conditions: mouse heart crude membranes
T4 construct: we prepared mitochondria rich crude membranes from mouse heart; from tissue; host or cells: mouse heart, crude membrane extract
Protocol: as §2, §3, §4

F-ATPase [8] = target: T5, F-ATPase (Bos taurus, UniProt P00829); experiment: Inhibition of F-ATPase activity in submitochondrial particles from beef heart; type: biochemical; conditions: beef heart submitochondrial particles
T5 construct: Submitochondrial particles were obtained by ultrasonic treatment of the mitochondria; from tissue; host or cells: beef heart mitochondria, submitochondrial particles
Protocol: as §2, §3, §4

fungi = conditions: ref [11],[15],[17]; cited from earlier work
mammalian V-ATPases = conditions: ref [11],[15],[17]; cited from earlier work
V-ATPases from fungi = conditions: Saccharomyces cerevisiae or Neurospora crassa; ref [11],[15],[17]; cited from earlier work
[9] = 120 h, 3Y1, rat embryogenic fibroblast cell line, MTT after 5 days
[10] = M1, mouse embryogenic fibroblast cell line, MTT after 5 days

T1 sequence (P31403 whole entry): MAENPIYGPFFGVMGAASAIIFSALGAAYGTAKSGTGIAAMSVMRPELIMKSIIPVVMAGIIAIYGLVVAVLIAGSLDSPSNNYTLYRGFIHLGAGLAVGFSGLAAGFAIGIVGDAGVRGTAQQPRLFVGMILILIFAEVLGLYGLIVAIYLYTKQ
T3 sequence (P31403 whole entry): as above

Row | Compound | IC50 (3Y1; [9]) | IC50 (KB-V1) | IC50 (M1; [10]) | IC50 per mg of protein, purified V-ATPase [1] | specific activity of Na+/K+-ATPase (Na+/K+-ATPase; experiment 1, control 19.0) | specific activity of Na+/K+-ATPase (Na+/K+-ATPase; experiment 2, control 15.9) | effect on Na+/K+-ATPase activity (Na+/K+-ATPase) | red LysoTracker staining indicating acidic lysosomes (PtK2 cells) | labelling of subunit c by I-concanolide A after pre-incubation (Vo subunit c [2]) | inhibition of bacterial growth (bacterial growth) | IC50 (L-929) | IC50 per mg of protein, purified V-ATPase [5] | IC50 [5] | labelling of / binding to subunit c (Vo subunit c [6]) | also measured
1 | CC/C=C\C=C/C(=O)N/C=C/C[C@H]1C[C@H]2C[C@H](O)C[C@H](Cc3cccc(O)c3C(=O)O1)O2 [apicularen A] | 3.2 nM | 23 nM | 1.4 nM | ca. 0.8 nmol per mg of protein | 17.3 µmol/mg/min | 13.2 µmol/mg/min | only slightly affected | disappeared | did not appear to interfere | failed to inhibit |  |  |  |  | IC50 ([1]; purified holoenzyme, 3–4 μg protein, pH 8.1, 30°C, read-out: half-maximal inhibition concentration of purified V-ATPase): ~20 nM; IC50 (A-594 [3]): 0.23 nM
2 | CNC(=O)O[C@@H](CC(C)C)c1nc([C@H]2OC(=O)/C(C)=C/C/C(C)=C/[C@@H](O)[C@@H](C)\C=C(C)/C=C(C)\C=C\[C@@H](O)[C@H](C)[C@H](OC)/C(C)=C/C=C/[C@@H]2C)cs1 [archazolid A] |  | 48 nM |  | ca. 0.8 nmol per mg of protein | 17.1 µmol/mg/min | 12.2 µmol/mg/min | only slightly affected | disappeared | completely abolished | failed to inhibit | 0.81 nM |  |  |  | IC50 (3Y1; Rattus norvegicus, 3Y1, 120 h): 0.95 nM; IC50 (A-594 [4]; Homo sapiens): 0.54 nM; IC50 (M1; Mus musculus, Fibroblast): 0.27 nM; IC50 [1]: ~20 nM
3 | C/C=C/[C@H]1O[C@@](O)([C@@H](C)[C@H](O)[C@H](C)[C@H]2OC(=O)/C(OC)=C/C(C)=C/[C@@H](C)[C@@H](O)[C@@H](CC)[C@@H](O)[C@H](C)C/C(C)=C/C=C/[C@@H]2OC)C[C@@H](O[C@H]2C[C@@H](O)[C@H](OC(N)=O)[C@@H](C)O2)[C@@H]1C [concanamycin A, reference compound] | 1.4 nM | 28 nM | 0.56 nM |  | 16.7 µmol/mg/min | 12.7 µmol/mg/min | slight inhibition of comparable size | disappeared |  |  | 0.23 nM | ca. 0.5 nmol per mg of protein | ~10 nM | prevented | IC50 (A-594 [4]; A-594, human lung carcinoma, MTT after 5 days): 0.17 nM
4 | archazolid |  |  |  |  |  |  |  |  |  |  |  |  |  |  | ATPase activity reduced to (remaining activity) (F-ATPase [7]; inhibitor 1 μM): approximately 80%; effect of increased inhibitor concentration on F-ATPase activity (F-ATPase [7]; inhibitor 10 μM): no substantial effect; ATPase activity reduced to (remaining activity) (F-ATPase [8]; inhibitor 1 μM): approximately 80%; effect of increased inhibitor concentration on F-ATPase activity (F-ATPase [8]; inhibitor 10 μM): no substantial effect; activity against fungi (fungi): weak activity
5 | salicylihalamide |  |  |  |  |  |  |  |  |  | failed to inhibit |  | ca. 0.5 nmol per mg of protein | ~10 nM | does not bind to subunit c | inhibition of mammalian V-ATPases (mammalian V-ATPases): effectively inhibited; inhibition of V-ATPases from fungi (V-ATPases from fungi): not at all
